According to patent US20010007907A1, “3-EPI COMPOUNDS OF VITAMIN D3 AND USES THEREOF” (WOMEN AND INFANTS HOSPITAL, priority 1997, published 2001):
Like-named read-outs stand apart in the source and are kept apart here. Each block holds one compound with its values, some of them ahead of it.

What was measured:
[1] = biological target: T1, plasma vitamin D binding protein (DBP) (Homo sapiens, UniProt P02774); assay: Competitive ligand binding to plasma vitamin D binding protein (RCI); details: fold over 1α,25(OH)2D3
T1 sequence (P02774 17-474): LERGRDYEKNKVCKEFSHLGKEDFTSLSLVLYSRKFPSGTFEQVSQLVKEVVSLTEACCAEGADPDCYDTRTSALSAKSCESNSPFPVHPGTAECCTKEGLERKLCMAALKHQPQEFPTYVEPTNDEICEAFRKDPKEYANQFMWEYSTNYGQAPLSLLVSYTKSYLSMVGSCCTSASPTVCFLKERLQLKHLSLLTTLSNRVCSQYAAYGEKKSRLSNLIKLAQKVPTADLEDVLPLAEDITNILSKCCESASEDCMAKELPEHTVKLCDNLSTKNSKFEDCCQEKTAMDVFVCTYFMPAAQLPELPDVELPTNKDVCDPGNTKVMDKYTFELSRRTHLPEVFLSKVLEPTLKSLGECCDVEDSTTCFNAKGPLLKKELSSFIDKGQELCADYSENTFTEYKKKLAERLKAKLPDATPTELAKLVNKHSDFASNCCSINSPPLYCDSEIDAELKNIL
From the text: The elevated levels of 3-epi binding indicate that 3-epi forms bind to DBP more avidly than their isomeric counterparts. Such enhanced binding may in turn enhance the stability of 3-epi forms in the plasma, and thus may explain the prolonged presence of 3-epi metabolites in vivo.
Ligand binding assays are well known in the art. […] Such plots give linear curves characteristic for each test analog, the slopes of which are equal to the analog's competitive index (Wecksler, W. R. and Norman, A. W. (1980) Methods of Enzymol. 67:494-500).

keratinocytes [2] = assay: Keratinocyte growth inhibition (cell number per well); assay type: cell-based, human; details: for inhibition of keratinocyte growth: result in words; for potency at inhibiting growth of keratinocytes compared with 1α,25(OH)2-3-epi-D3: data not shown
Method: To address the effect of 3-epi vitamin D3 compounds on keratinocyte growth, keratinocyte cultures were established at 25.000 cells/per well on day 0 in KGM. […] The cells were allowed to grow for 4 more days with one refeeding on day 3. Number of cells per well was determined on day 4.

bovine parathyroid cells [3] = assay: Inhibition of PTH secretion in bovine parathyroid cells; assay type: cell-based; details: result in words
Method: To determine the effect of 3-epi vitamin D3 compounds on parathyroid hormone secretion, bovine parathyroid cells were prepared as described in the metabolism studies. These cells were grown for four days in serum-free media. […] Steady state PTH seretion was determined by washing the cells 3 times with Dulbecco's PBS and then placing them in serum free media for 3 hours. The media was collected, centrifuged at 4° C. and analyzed from PTH using CH9 antibody as described previously (Brown A. J. et al. (1992) Endocrinology 130:276-281). The cell monolayers were dissolved in 0.1 N NaOH and assayed for protein by method of Bradford using a kit from Biorad Laboratories. PTH secretion is expressed as picograms PTH per milligram cell protein (FIG. 20, panel B).

human keratinocytes = assay: Metabolism in human keratinocytes (incubation, lipid extraction, HPLC); assay type: in vitro ADME
Method: Keratinocytes were prepared as described previously (Kim H. […] First passage keratinocytes were seeded at 0.5×10^6 into […] flasks in keratinocytes growth media (KGM, Clonetics, Inc.). The cells were fed every 2-3 days. The cells were 70-80% confluent usually after 5 days. […] At the end of 24 hr incubation period in a 37° C., 5% CO2 incubator, an equal volume of methanol was added to the cultures. The cells were then scraped from the flasks and all of the media and the cells were pooled and lipid extraction was performed from both cells and media using the Bligh and Dyer technique. […] Zorbax-SIL column eluted with 6% isopropanol in hexane at a flow rate of 2 ml/min. […] Resulting lipid extracts were analyzed using the following HPLC conditions: Zorbax-SIL column eluted with 9% isopropanol in hexane at a flow rate of 2 ml/min. […] Lipid extracts of different time points were analyzed by straight phase HPLC. […] This metabolite peak appeared at 1 hr. incubation period and increased to its maximum by 3 hr.

[4] = biological target: T1, plasma vitamin D binding protein (DBP); details: relative competitive index; RCI of 1α,25(OH)2D3 is by definition 100; cited from earlier work
[5] = tested on: intestinal calcium transport; details: relative to 1α,25(OH)2D3 = 100; cited from earlier work
[6] = tested on: bone calcium mobilization; details: relative to 1α,25(OH)2D3 = 100; cited from earlier work
MG-63 = details: relative to 1α,25(OH)2D3 = 100; cited from earlier work
[7] = tested on: intestinal calcium mobilization; details: cited from earlier work
[8] = tested on: rat osteosarcoma cell line UMR 106
Method: (§1) In order to address whether vitamin D3 analogs can be converted to 3-epi forms, a number of analogs were tested in bone cells under identical experimental conditions as described in Example IX.

Caco-2 cells = assay: Metabolism of synthetic analogs in Caco-2 cells (HPLC); assay type: in vitro ADME, human; details: for metabolites detected in subconfluent cells: Caco-2, 6 days after seeding; for metabolites detected in subconfluent cells / metabolites detected in confluent cells: 1 μM, 48 hours; for metabolites detected in confluent cells: Caco-2, 14 days after seeding
Method: To address whether the epimerization of vitamin D3 analogs occurs in other tissues, the intestinal cell line Caco-2 was used as a model system to investigate the metabolism of two synthetic analogs of 1,25(OH)2D3 in intestinal epithelial cells. Subconfluent (6 days after seeding) and confluent (14 days after seeding) cells were incubated with 1 μM 1,25(OH)2-16-ene-D3 or 1,25(OH)2-16-ene-23-yne-D3, respectively, for 48 hours.

human leukemic cells = assay: Proliferation and differentiation of human leukemic cells; assay type: cell-based; details: data not shown
keratinocytes [9] = details: J. Invest. Dermatol. 101:713-718, 1993; cited from earlier work
HACAT cells = assay: Metabolism of 1α,25(OH)2D3 in immortalized human keratinocytes (HACAT); assay type: in vitro ADME; details: 24 hr, 1uM 1α,25(OH)2D3
From the text: Primary cultures of human keratinocytes were used as a control (FIG. 12, panel A). The other three tissues tested included a cell line of immortalized human keratinocytes ([…] commonly studied cancer cell line (human promyelocytic leukemic cell line, HL-60) (FIG. 12, panel C), and perfused rat kidney (FIG. 12, Panel D). […] The experiments certainly establish the fact that the 3-epimerization is not ubiquitous, like the side chain oxidation pathways.

bovine parathyroid cells [10] = assay: Metabolism in bovine parathyroid cells (HPLC); assay type: in vitro ADME; details: 1 uM, 24 hours
Method: Bovine parathyroid glands obtained from a local slaughterhouse were digested with collagenase and the cells were cultured as previously described (Brown A. J. et al. (1992) Endocrinology 130:276-281), and seeded at a density of 80,000 cells/cm^2. Cells were grown to confluence in six days in serum free medium. […]. Incubations were terminated with methanol, and the samples were sent to our laboratory for HPLC analysis. The lipid extract was analyzed using the straight phase HPLC system (Zorbax-SIL column eluted with 6% isopropanol inhexane at 2 ml/min flow rate). […]

[11] = tested on: human osteosarcoma cell (U-2 OS); assay: Metabolism of 1α,25(OH)2D3 in human osteosarcoma cell (U-2 OS); assay type: in vitro ADME; details: 3×10^7 and 12×10^7 cells
Method: HPLC profiles were determined at two different cell densities, 3×10^7 cells and 12×10^7 as shown in the upper and lower panels of the Figure, respectively.

human placental explants = details: 1 uM 1α,25(OH)2D3
[12] = tested on: rat osteosarcoma cell line UMR 106; assay: Metabolism in rat osteosarcoma cell line UMR 106 (HPLC); details: UMR 106, 1α,25(OH)2D3, 24 and 48 hours
Method: as §1

[13] = biological target: T2, vitamin D3 nuclear receptors (VD3R) (Rattus norvegicus, UniProt P13053); assay: Osteocalcin VDRE reporter gene transcription assay in transfected ROS-17/2.8 cells
T2 sequence (P13053 1-423): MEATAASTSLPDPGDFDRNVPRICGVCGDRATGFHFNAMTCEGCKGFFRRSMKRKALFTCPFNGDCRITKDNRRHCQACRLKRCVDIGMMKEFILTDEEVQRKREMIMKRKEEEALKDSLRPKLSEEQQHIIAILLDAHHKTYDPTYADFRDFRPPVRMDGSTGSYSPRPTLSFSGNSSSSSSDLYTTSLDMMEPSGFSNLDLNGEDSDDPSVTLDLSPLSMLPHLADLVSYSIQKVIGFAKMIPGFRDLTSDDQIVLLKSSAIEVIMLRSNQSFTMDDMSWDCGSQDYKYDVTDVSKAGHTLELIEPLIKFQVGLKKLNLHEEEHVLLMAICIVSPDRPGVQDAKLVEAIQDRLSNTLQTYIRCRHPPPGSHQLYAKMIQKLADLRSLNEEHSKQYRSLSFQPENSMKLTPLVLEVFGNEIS

metabolites detected in subconfluent cells (Caco-2 cells): no metabolites could be detected
metabolites detected in confluent cells (Caco-2 cells): 3-epi forms
rate of metabolism compared with 1,25(OH)2D3 or 1,25(OH)2-16-ene-D3 (Caco-2 cells; Caco-2, all growth conditions, data not shown): metabolized considerably slower
conversion of vitamin D3 analog into less polar 3-epi metabolite [8]: 3-epi forms
SMILES: C=C1/C(=C\C=C2/CCC[C@]3(C)C([C@H](C)CC#CC(C)(C)O)=CC[C@@H]23)C[C@@H](O)C[C@@H]1O [1α,25(OH)2-16-ene-23-yne-D3]

metabolites detected in confluent cells (Caco-2 cells): 3-epi form of 1,25(OH)2-16-ene-D3
SMILES: C=C1/C(=C\C=C2/CCC[C@]3(C)C([C@H](C)CCCC(C)(C)O)=CCC23)C[C@@H](O)C[C@@H]1O (stereo partly drawn) [1α,25(OH)2-16-ene-D3]
potency at inhibiting growth of keratinocytes compared with 1α,25(OH)2-3-epi-D3 (keratinocytes [2]): more potent than 1α,25(OH)2-3-epi-D3
inhibition of keratinocyte growth (keratinocytes [2]): equally potent
metabolites detected in subconfluent cells (Caco-2 cells): 1,24,25(OH)3-16-ene-D3 and 1,25 (OH)2-24-oxo-16-ene-D3
inhibiting proliferation and inducing differentiation of keratinocytes (keratinocytes [9]): most potent of the analogs tested

conversion of vitamin D3 analog into less polar 3-epi metabolite [8]: 3-epi form
SMILES: C=C1C(=CC=C2CCCC3(C)C2CCC3C(C)CCCC(C)(C)O)CC(O)CC1O (stereo not drawn) [1α,25(OH)2-20-epi-D3]

incubation time at which the tritiated metabolite reaches its maximum (human keratinocytes; human keratinocytes from adult breast skin incubated with tritiated 25(OH)D3, physiological substrate concentration): 1 to 2 h
conversion into 1α,25(OH)2-3-epi-D3 (bovine parathyroid cells [10]): have the ability to convert
epimerization of the 3-hydroxy group (human placental explants): unable to epimerize
formation of 1α,25(OH)2-3-epi-D3 [12]: dose dependent
SMILES: C=C1/C(=C\C=C2/CCC[C@@]3(C)C2CCC3C(C)CCCC(C)(C)O)CC(O)C[C@@H]1O (stereo partly drawn) [1α,25(OH)2D3]
formation of 1α,25(OH)2-3-epi-D3 (peak M) (human keratinocytes; primary human keratinocytes, 24 hr, 1uM 1α,25(OH)2D3): is formed in keratinocytes and the HACAT cells
formation of 1α,25(OH)2-3-epi-D3 (peak M) (HACAT cells): is formed in keratinocytes and the HACAT cells
conversion into 3-epi form [11]: directly proportional to the concentration of cells
Intestinal Calcium Transport [5]: 100
Bone Calcium Mobilization [6]: 100
Osteocalcin Synthesis MG-63 (MG-63): 100
Transcaltachia ([7]; relative to 1α,25(OH)2D3 = 100): 100

Continued, compound first:

SMILES: C=C1C(=CC=C2CCCC3(C)C2CCC3C(C)CCCC(C)(C)O)CC(O)CC1O (stereo not drawn) [1α,25(OH)2-3-epi-D3, 3-epi-1α,25-dihydroxycholecalciferol]
increase in the binding to plasma vitamin D binding protein (DBP) compared to 1α,25(OH)2D3 [1]: eightfold
inhibition of keratinocyte growth (keratinocytes [2]): significant biological activity
inhibition of PTH secretion (bovine parathyroid cells [3]): significant biological activity
incubation time at which the tritiated metabolite reaches its maximum (human keratinocytes): 3 h
metabolism into more polar metabolites (human keratinocytes): extensive metabolism
Binding to DBP (RCI) [4]: 800
Intestinal Calcium Transport [5]: 2.8
Bone Calcium Mobilization [6]: 1.5
Osteocalcin Synthesis MG-63 (MG-63): 17
Transcaltachia ([7]; relative to 1α,25(OH)2D3): 80%
Transcaltachia ([7]; relative to 1α,25(OH)2D3 = 100): 80

SMILES: C=C1/C(=C\C=C2/CCC[C@]3(C)C([C@@H](C)CCCC(C)(C)O)=CCC23)C[C@@H](O)C[C@@H]1O (stereo partly drawn) [1α,25(OH)2-16-ene-20-epi-D3]
conversion of vitamin D3 analog into less polar 3-epi metabolite [8]: 3-epi form

SMILES: C=C1/C(=C\C=C2/CCC[C@]3(C)C([C@H](C)CCC(=O)C(C)(C)O)=CC[C@@H]23)C[C@@H](O)C[C@@H]1O [1α,25(OH)2-16-ene-24-oxo-D3]
potency at inhibiting growth of keratinocytes compared with 1α,25(OH)2-3-epi-D3 (keratinocytes [2]): more potent than 1α,25(OH)2-3-epi-D3
inhibition of keratinocyte growth (keratinocytes [2]): equally potent
modulating proliferating and differentiation of human leukemic cells, compared with parent compound (human leukemic cells): equipotent effect as its parent compound
accumulation of metabolite relative to remaining unmetabolized substrate (human keratinocytes; human): exceeded the amounts of remaining unmetabolized substrate

SMILES: C=C1C(=CC=C2CCCC3(C)C(C(C)CC#CC(C)(C)O)=CCC23)CC(O)CC1O (stereo not drawn) [3-epi-1,25-dihydroxy-16-ene-25-yne-cholecalciferol]
transcriptional activation in relation to isomeric counterpart [13]: slightly decreased
transcriptional activity compared with 1α,25(OH)2D3 [13]: as active as 1α,25(OH)2D3
induction of VD3R transcriptional activity ([13]; osteocalcin VDRE reporter): dose dependent manner
